Results on 7 compounds are retold here after patent EP3193856B1, “FORMULATION” (Pharmaq AS, priority 2014, dated 2016).

In brackets after ≈: the same amount, converted by molar mass. Read-outs that look alike come from different tables or passages of the source.

Data set [1] concerns Atlantic salmon. The experiment in a line: Safety of formulations based on different solvents after intraperitoneal injection. As to conditions: i.p. 0.2 ml; 37.8 g, freshwater 17°C; 3 week period. It counts as in vivo. On the procedure:
Atlantic salmon (average size: 37.8 g) kept in freshwater (17°C) were divided into 11 groups of 5 or 25 fish per group. Mortality was then logged over a 3 week period. […]

Data set [2] can be described thus: Solubility of hexaflumuron, solvent added gradually until complete dissolution. It counts as physicochemical. As to conditions: for solubility: thermodynamic from solid. On the procedure:
In order to produce a formulation in which hexaflumuron was present in stable solution, the solubility of hexaflumuron in various other solvents was investigated. Solubility was determined by adding each solvent gradually to a specific mass of hexaflumuron until complete dissolution was observed.

Data set [3] deals with Lepeophtheirus salmonis. Description: Sea lice challenge of treated Atlantic salmon. It counts as in vivo. Particulars: for Mean number of lice per fish Treated group: chalimus stage counted 2 weeks post challenge, n=10; for Relative effect of treatment: versus untreated group. On the procedure: Atlantic salmon (total n=180) were kept in full seawater (3.5% salinity, 12°C). Half of the population (n=90) were treated with parasiticide (in this case hexaflumuron) on day 0. Treated and untreated fish (n=10 per group) were randomly collected from each group and challenged with copepodids of Lepeophtheirus salmonis in a common challenge tank during a 12 weeks period. This was done six times after treatments, in weeks 1, 3, 6, 8, 10 and 12 post treatment. The number of lice reaching chalimus stage was registered on each fish 2 weeks post challenge. Concentration of hexaflumuron in a portion of muscle with skin was also measured in each fish at the time of lice count.

For data set [4] the following is noted: cited from earlier work.
Data set [5] in a line: Maximum solubility of hexaflumuron in PEG/DMSO/CA as a function of PEG molecular weight (Figure 6). It counts as physicochemical. As to conditions: PEG600/DMSO/CA mixture, organic solvent or mixture, thermodynamic from solid; formulation with 85% by weight PEG600 and 15% by weight DMSO. On the procedure:
An experiment was performed in order to investigate the solubility of parasiticide (hexaflumuron) in a formulation comprising PEG (85 mass%), DMSO (15 mass%), and CA (0.3 volume %) as a function of PEG molecular weight. Increasing amounts of hexaflumuron were dissolved in different mixtures of PEG/DMSO/CA (85/15/0.3) with PEG molecular weights ranging from 200 to 600.

Data set [6] deals with salmonids. As to conditions: Benville et al 1968; cited from earlier work.
Data set [7] relates to Atlantic salmon. Particulars: in vivo, ip, 3 months. On the procedure:
To investigate the toxicity of the polar solvent further, formulations comprising different amounts of DMSO were prepared as detailed in Table 4. The formulations were intraperitoneally injected in a single dose into Atlantic salmon (19 - 38 g) kept in freshwater (8 - 17 °C). The eventual toxicity induced by each formulation was assessed by continuous registration of mortality up until 3 months post injection, and is shown in Table 4.
Therefore, it was extremely surprising to find that doses as low as about 1 g/kg cause mortality in Atlantic salmon.

Regarding `CCOC(C)=O` [Ethyl acetate], the “% Mortality” value in data set [1] was 100%.
With `COCC(C)O` (stereo not shown) [1-methoxy-2-propanol], the “% Mortality” value in data set [1] was 100%.
Consider `O=C(NC(=O)c1c(F)cccc1F)Nc1cc(Cl)c(OC(F)(F)C(F)F)c(Cl)c1` [Hexaflumuron], for which the solubility in data set [2] (oil or lipid, solvent: Isopropyl myristate) is < 1 mg/mL; in data set [2] (oil or lipid, solvent: Paraffin Light Liquid) it was < 0.1 mg/mL; in data set [2] (organic solvent or mixture, solvent: Acetone) it was > 130 mg/mL; in data set [2] (organic solvent or mixture, solvent: DMA), > 300 mg/mL; in data set [2] (organic solvent or mixture, solvent: DMF) it was > 300 mg/mL; in data set [2] (organic solvent or mixture, solvent: DMSO), > 300 mg/mL. Besides, the solubility was > 75 mg/mL in data set [2] (organic solvent or mixture, solvent: Ethyl acetate); > 300 mg/mL in data set [2] (organic solvent or mixture, solvent: NMP); < 0.5 mg/mL in data set [2] (organic solvent or mixture, solvent: Propylene glycol (PG)); > 75 mg/mL in data set [2] (organic solvent or mixture, solvent: Tetraglycol); < 0.5 mg/mL in data set [2] (organic solvent or mixture, solvent: n-heptane); ~130 mg/mL (≈ 282 mM) in data set [5]. In addition, the “Hexaflumuron Solubility” value in data set [2] (solvent: DMSO) is >300 mg/mL; in data set [4] (solvent: Methanol), 11300 µg/mL; in data set [4] (solvent: Water), 0.027 µg/mL; in data set [4] (solvent: Water, listed as hexaflumuron), “about 2.7 x 10^-5 mg/ml”; in data set [4] (solvent: Xylene) it was 5200 µg/mL. The “Mean number of lice per fish Treated group” value in data set [3] (challenged week 1 post treatment, Atlantic salmon, seawater 12°C) was 0; in data set [3] (challenged week 3 post treatment), 0; in data set [3] (challenged week 6 post treatment), 0; in data set [3] (challenged week 8 post treatment) it was 0.2; in data set [3] (challenged week 10 post treatment), 1.7; in data set [3] (challenged week 12 post treatment), 27.6. For the same compound, the “Relative effect of treatment” value was 100% in data set [3] (week 1 post treatment); 100% in data set [3] (week 3 post treatment); 100% in data set [3] (week 6 post treatment); 98% in data set [3] (week 8 post treatment); 69% in data set [3] (week 10 post treatment); 47% in data set [3] (week 12 post treatment).
With `CN1CCCC1=O` [NMP, n-methyl-2-pyrrolidone], in data set [1], the “% Mortality” value was 100%.
Consider `C[S+](C)[O-]` [DMSO, Dimethyl sulfoxide], for which, in data set [6], the LD50 was 12000 to 17000 mg/kg and the “dose reported not to give any mortality” value was 7050 mg/kg. Further, the “doses at which DMSO was found to be toxic” value in data set [7] was > 1000 mg/kg.
In the case of Glycofurol, the “% Mortality” value in data set [1] amounted to 100%.
Regarding `CC(O)CO` (stereo not shown) [PG, propylene glycol], in data set [1], the “% Mortality” value worked out at 0%.
